Patent publication US11890279B2, “Quinolines that modulate SERCA and their use for treating disease” (Neurodon Corporation, priority 2020, dated 2024)

Tests used:
[1] = Pharmacokinetics in Sprague Dawley rats; type: in vivo, rat; settings: rat; for AUC(0-t): read-out: AUC0-t; for MRT inf: read-out: MRT0-∞
Method: Blood was drawn at 5 min, 15 min, 30 min, 1 hr, 2 hrs, 4 hrs, 6 hrs, and 8 hrs into EDTA containing tubes and plasma was harvested by centrifugation. Plasma (25 μL) was treated with acetonitrile (125 μL) containing an internal standard. The sample was then centrifuged for 5 min at 4,000 rpm in a tabletop centrifuge and the filtrate was collected. The filtrate was injected onto a Thermo Betasil C18 HPLC column 5 (50×2.1 mm). Mobile Phase A was water with 0.1% formic acid. Mobile Phase B was acetonitrile with 0.1% formic acid. […] An API Sciex 4000 equipped with a turbo ion spray source was used for all analytical measurements. A positive ion MRM method was developed. Peak areas of the product ion were measured against the peak areas of the internal standard. Data was fit using WinNonLin (Pharsight Corporation, Mountain View, CA).

SERCA (SR vesicles) = assay: Activation of SERCA, increase in Vmax; type: biochemical
Method: Test compounds were characterized over a range of concentrations using an NADH-linked, enzyme-coupled ATPase assay. Each well contained 2 mg or 7 mg of SR vesicles (optimized for skeletal or cardiac SR, respectively), 50 mM MOPS (pH 7.0), 100 mM KCl, 5 mM MgCl2, 1 mM EGTA, 0.2 mM NADH, 1 mM phosphoenol pyruvate, 5 IU pyruvate kinase, 5 IU lactate dehydrogenase, and 3.5 mg/mL A23187 (a calcium ionophore), and CaCl2 was added to set free [Ca2+] to the specific values. The assay was started upon addition of ATP at a final concentration of 5 mM, and read in a SpectraMax Plus microplate spectrophotometer and the ATPase activities were fitted using the Hill function.

[2] = Pharmacokinetics in Beagle dogs; type: in vivo; settings: dog; for MRT inf: read-out: MRT0-∞
Method: Pharmacokinetics of compound A13 was assessed in dogs. […] For pharmacokinetic evaluation, 3 male Beagle dogs were intravenously (IV) dosed (1 mg/kg body weight) and 3 male Beagle dogs were orally (PO) dosed (10 mg/kg body weight) with a test compound. Blood (approximately 1.0 mL) was collected via femoral vein into tubes containing K3EDTA anticoagulant at 0, 0.017, 0.083, 0.5, 1, 2, 4, 6, 8, and 24 hours post-dosing. Plasma samples were analyzed by LC-MS/MS. The analytical results were confirmed using quality control samples for intra-assay variation. The accuracy of >66% of the quality control samples was between 80-120% of the known value(s). A standard set of pharmacokinetic parameters were generated from concentration data including Area Under the Curve (AUC0-t and AUC0-inf), elimination half-lives, clearances, volume of distribution and bioavailabilities (based on AUC0-t), maximum plasma concentration (C0; Cmax), and time to reach maximum plasma concentration (Tmax).

Ca^2+-ATPase = assay: Ca2+-ATPase assay, microsomal preparations from HEK 293 cells; type: biochemical, human
Method: A Ca^2+-ATPase assay was performed using microsomal preparations from HEK 293 cells at a series of calcium concentrations corresponding to the physiological range, relative to controls. The ATP hydrolysis rate was measured over a range of calcium concentrations in the presence of test compounds using an NADH-linked, enzyme-coupled ATPase assay adapted for 96-well microplates, with Vmax determined by fitting the ATPase calcium-dependence to the Hill function. […] CaCl2 was added to set free [Ca^2+] to the specific values.

human islet microtissues = assay: Protection of human pancreatic islets under cytokine stress; type: cell-based; settings: 168 h, compound 5 μM, cytokine cocktail IL1-β, IFN-γ, TNF-α, 7 days, read-out: increase in viability over baseline (total ATP content)
Method: Human pancreatic islet microtissues treated with cytokines were used to model the conditions of Type 1 Diabetes in vitro. This study tested the effects of compounds on […] viability in human islets under cytokine stress. The model consisted of human islet microtissues from an HLA-A2 positive donor grown and separated in a 96-well plate (1 microtissue per well). The microtissues were treated for 7 days with a cocktail of cytokines (IL1-β 5 ng/mL, IFN-γ 25 ng/mL, TNF-α 25 ng/mL) and compound (5 μM) or vehicle. There were 6 microtissues treated per compound or vehicle. At day 7, the total ATP content was measured using CellTiter-Glo (Promega).

[3] = Pharmacokinetics in CD-1 mice; type: in vivo, mouse; settings: for F / AUC / Cmax / half-life: CD-1 mice; for F: 10 mg/kg P.O. vs 2 mg/kg i.v.; for AUC / Cmax / half-life: mouse, plasma, 2 mg/kg i.v. or 10 mg/kg P.O.; for pharmacokinetic properties as measured by CMAX, AUC and F (%): compared with other SERCA modulators, see Table 6
Method: Pharmacokinetics of test compounds were assessed in CD-1 mice. The compounds were formulated at 1 mg/mL in DMSO/Tween 80/water (10/10/80, vol/vol/vol) and dosed at 2 mg/kg intravenous (i.v.) or 10 mg/kg by oral gavage (P.O.) in triplicate. Blood was drawn at 0.25 h, 0.5 h, 1 hr, 2 hrs, 4 hrs, 8 hrs, and 24 hrs into EDTA containing tubes and plasma was harvested by centrifugation. Plasma (10 μL) containing 50% acetonitrile in water (5 μL) was added to 200 μL of ACN containing an internal standard. The samples were vortexed for 30 s. After centrifugation at […] and 4,000 rpm for 15 min, the supernatant was diluted 3 times with water. Then, 20 μL of diluted supernatant was injected into the LC/MS/MS system for quantitative analysis. The samples were injected onto an Agilent ZORBAX XDB-Phenyl 5μ column (50×2.10 mm). Mobile Phase A was water with 0.1% formic acid. Mobile Phase B was acetonitrile with 0.1% formic acid. Separation was achieved using a gradient of 70% A/30% B to 0% A/100% B over 2.10 min. A Shimadzu LCMS-8050 equipped with a turbo ion spray source was used for all analytical measurements. A positive ion MRM method was developed. Peak areas of the product ion were measured against the peak areas of the internal standard. Data was fit using WinNonLin (Pharsight Corporation, Mountain View, CA).

CSM14.1 cells = assay: ER stress cell survival assay (thapsigargin); type: cell-based; settings: compound 2 μM; about 15 μM thapsigargin; CSM14.1 cells;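 further: survival read as CellTiter-Glo luminescence after overnight incubation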
HEK293 cells = assay: Protection against thapsigargin (TG)-induced cell death, HEK293; type: cell-based, human; settings: compound 20 μM; thapsigargin 15 μM; 24 hrs
Method: (§1) Protection against Thapsigargin (TG)-induced Cell-death. Human embryonic kidney (HEK293) cells were grown in Dulbecco's Modified Eagle's Medium (DMEM) with 10% FBS and 1% antibiotic antimycotic solution (ABAM). Mouse neuroblastoma (N2a) cells were grown in 1:1 DMEM:OPTI-MEM® with 5% FBS and 1% ABAM. All cells were grown in 10% CO2 in a humidified environment of the incubator. Cells grown in 96-well plates were exposed to a test compound (20 μM) for 2 hrs before addition of thapsigargin (15 μM for HEK293 cells and 1 μM for N2a cells) to induce ER stress. After incubation in cell-culture incubator for 24 hrs, ALAMARBLUE® regent (10% v/v) was added to the wells. Fluorescence reading was taken 2 hrs after the addition of the ALAMARBLUE® regent. Cell-viability was calculated as a percentage of relative fluorescence unit (RFU) compared to control.
(§2) The results are summarized in Table 2, where A represents a value greater than 50% cell rescue, B represents a value between 10% to 50% cell rescue, C represents a value between 1% to 10% cell rescue, and D represents a value no greater than 1% cell rescue.

N2a cells [4] = assay: Protection against hydrogen peroxide-induced cell death, N2a; type: cell-based, mouse; settings: compound 40 μM; hydrogen peroxide 200 μM
Procedure, shortened: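 N2a cells were pretreated 2 h with compound at 40 μM, then exposed to 200 μM H2O2 for 40 min. AlamarBlue (10% v/v) was added and fluorescence read 2 h later. Viability expressed as % RFU of control, reported as % cell rescue.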

ob/ob mice = assay: Effect on the level of blood glucose in ob/ob mice; type: in vivo, mouse; settings: for blood glucose: 10 or 50 mg/kg i.p. once a day for 5 days, as early as day 2; for glucose level after the last injection: for over a week after the last injection
Method: Fasting glucose was measured at baseline and 10 hours after the administration of the test compound. Glucose levels were measured in blood samples drawn from the tail vein using the OneTouch Ultra 2 Meter (LifeScan, Inc.).

N2a cells [5] = assay: Protection against thapsigargin (TG)-induced cell death, N2a; type: cell-based, mouse; settings: compound 20 μM; thapsigargin 1 μM; 24 hrs
Method: as §1, §2

[6] = Sprague Dawley, in vivo, IV 2 mg/kg
[7] = Sprague Dawley, in vivo, PO 10 mg/kg
[8] = male, Beagle, plasma, IV 1 mg/kg
[9] = male, Beagle, plasma, PO 10 mg/kg

Cc1ccc2cccc(NC(=O)c3cccc(OC(C)C)c3)c2n1 [Compound A13, 3-Isopropoxy-N-(2-methylquinolin-8-yl)benzamide]
AUC(0-inf) [1, 6]: 847 ± 29 ng·h/mL | Cmax [1, 6]: 8370 ± 1100 nM | Tmax [1, 6]: 4.8 min | clearance [1, 6]: 39.3 mL/min/kg | half-life [1, 6]: 121 min | AUC(0-t) [1, 6]: 842 ± 31 ng·h/mL | MRT inf [1, 6]: 27 min | Vd ([1]; Sprague Dawley, in vivo, IV 2 mg/kg, read-out: Vz): 6.87 L/kg | AUC(0-inf) [1, 7]: 234 ± 154 ng·h/mL | Cmax [1, 7]: 800 ± 350 nM | Tmax [1, 7]: 25.2 min | half-life [1, 7]: 22.8 min | AUC(0-t) [1, 7]: 232 ± 154 ng·h/mL | MRT inf [1, 7]: 38.4 min | F ([1]; PO 10 mg/kg vs IV 2 mg/kg): 5.5% | Increase in Vmax at 10 μM (SERCA (SR vesicles)): B′ (B′ represents an increase between 20 to 50%) | F ([2]; PO 10 mg/kg vs IV 1 mg/kg): 1.4% | AUC(0-inf) [2, 8]: 96 ± 12 ng·h/mL | AUC(0-t) [2, 8]: 95 ± 12 ng·h/mL | Cmax [2, 8]: 2200 ± 500 nM | Tmax [2, 8]: 1.2 min | clearance [2, 8]: 177 mL/min/kg | half-life [2, 8]: 20.4 min | MRT inf [2, 8]: 12.6 min | Vd ([2]; male, Beagle, plasma, IV 1 mg/kg, read-out: Vz): 5.4 L/kg | Cmax [2, 9]: 80 ± 60 nM | Tmax [2, 9]: 21.6 min | half-life [2, 9]: 22.2 min | MRT inf [2, 9]: 37.2 min | increase in baseline ATPase activity (Ca^2+-ATPase): 10-15% | viability at 5 µM (human islet microtissues): 20 to 50% | F [3]: 3.1% | AUC [3]: 26 ng·h/mL | Cmax [3]: 120 nM | half-life [3]: 50.4 min

CCNc1ccc(C(=O)Nc2cccc3ccc(C)nc23)cc1 [Compound C19, 4-(Ethylamino)-N-(2-methylquinolin-8-yl)benzamide]
Cell Survival (CSM14.1 cells): A (A represents a value greater than 50%) | HEK293 Cells (TG-induced) cell rescue (HEK293 cells): A (A represents a value greater than 50% cell rescue) | N2a Cells (H2O2-induced) cell rescue (N2a cells [4]): A (A represents a value greater than 50% cell rescue) | increase in baseline ATPase activity (Ca^2+-ATPase): 10-15% | viability at 5 µM (human islet microtissues): 20 to 50% | F [3]: 27% | pharmacokinetic properties as measured by CMAX, AUC and F (%) [3]: significantly improved pharmacokinetic properties | AUC [3]: 344 ng·h/mL | Cmax [3]: 850 nM | half-life [3]: 138 min | blood glucose (ob/ob mice): significantly lowered | glucose level after the last injection (ob/ob mice): identical to lean mice | N2a Cells (TG-induced) cell rescue (N2a cells [5]): B (B represents a value between 10% to 50% cell rescue)

Cc1ccc2cccc(NC(=O)c3ccc(NC(C)C)cc3)c2n1 [Compound C20, 4-(Isopropylamino)-N-(2-methylquinolin-8-yl)benzamide]
Cell Survival (CSM14.1 cells): A (A represents a value greater than 50%) | HEK293 Cells (TG-induced) cell rescue (HEK293 cells): B (B represents a value between 10% to 50% cell rescue) | N2a Cells (H2O2-induced) cell rescue (N2a cells [4]): B (B represents a value between 10% to 50% cell rescue) | increase in baseline ATPase activity (Ca^2+-ATPase): greater than 15% | viability at 5 µM (human islet microtissues): 20 to 50% | F [3]: 28% | pharmacokinetic properties as measured by CMAX, AUC and F (%) [3]: significantly improved pharmacokinetic properties | AUC [3]: 330 ng·h/mL | Cmax [3]: 860 nM | half-life [3]: 39.6 min | blood glucose (ob/ob mice): significantly lowered | glucose level after the last injection (ob/ob mice): identical to lean mice | N2a Cells (TG-induced) cell rescue (N2a cells [5]): B (B represents a value between 10% to 50% cell rescue)
